{"source": "patent US20070203079A1", "about": "“Methods of using small molecule compounds for neuroprotection” (priority 2005, published 2007)", "assay_type_in_all_cases": "in vivo, C. elegans", "key": {"[1]": {"tested_on": "transgenic worm line Pdat-1::CAT-2", "test": "Neurodegeneration by overexpression of cat-2 (tyrosine hydroxylase)", "description": "Overexpression of cat-2, the worm homologue for tyrosine hydroxylase, results in increased intraneuronal dopamine production and a characteristic loss of dopaminergic neurons in 75% of transgenic worms as compared to wild type (Cao et al., J Neurosci, 25(1):3801-3812). Co-expression of worm or human torsin proteins reduces the loss of dopaminergic neurons to a slight degree although neuronal degeneration is still present. The purpose of these experiments was to determine the effect of small molecule compounds in the Prestwick library in another different C. elegans model of neurodegeneration.\nWorms were cultured using the same methods described above. A transgenic worm line expressing Pdat-1::CAT-2 expresses a phenotype that results in visible neurodegeneration at all developmental stages in an integrated line, in which only approximately 55% of 7 day old animals maintained all four CEP neurons. […] Compound 166 is an example of one such compound.\nTo further examine the neuroprotective effect of meclofenamic acid and lidocaine, we used a transgenic line (Pdat-1::CAT-2) we previously described (Cao et al., J Neurosci, 2005, 25(1): 3801-3812). Overexpression of cat-2, the C. elegans homolog of the tyrosine hydroxylase (“TH”) gene, causes a high level of DA production and as a result, DA neuron degeneration is observed (Cao et al., J Neurosci, 2005, 25(1): 3801-3812). […] We also tested whether meclofenamic acid was able to suppress CAT-2-induced neurodegeneration. […] Therefore, meclofenamic acid can protect DA neurons from degeneration produced by overexpression of the dopamine precursor, tyrosine hydroxylase."}, "[2]": {"tested_on": "transgenic worms containing the transgene Pdat-1::GFP without any torsinA expression", "test": "6-OHDA dopaminergic neurodegeneration in worms without torsinA", "conditions": "no torsinA expression"}, "[3]": {"tested_on": "GFP::DAT-1", "test": "Pdat-1::GFP::DAT-1 expression within DA neurons", "conditions": "for Neurons with cell body and dendritic/axonal GFP: water control 70%; for Neurons with cell body and dendritic/axonal GFP / Mean pixel intensity of cell bodies ± SEM (fluorescence intensity): HCl; for Mean pixel intensity of cell bodies ± SEM (fluorescence intensity): water control 1970 ± 80, compounds at 1.85, 1.49, 1.86 mM"}, "[4]": {"tested_on": "protein misfolding and aggregation in transgenic worms", "test": "Corrective assay of protein aggregation (drug from L2 stage onward)", "conditions": "drug exposure from L2 stage onward; scored at L3 and young adult", "procedure": "To see the corrective effect of the candidate drug compounds on protein misfolding and aggregation, five gravid adult worms were placed onto a solvent control plate and grown at 20° C. for approximately 3 days. 35-40 Fl worms at L2 stage were picked and transferred to a drug plate. Thirty worms at L3 stage were counted for aggregate number 8 hours later. Thirty young adults were analyzed 32 hours later.\n(§1) To calculate the scaled effectiveness of special regimen of drugs on worms based on standardized decrease in protein aggregates. The following formula was used: (A−B)/(A−C)×100%, where\n(§2) A=number of aggregates for worms growing on solvent control plates\n(§3) B=number of aggregates for worms grown on the specific drug plate for the entire life of the worms\nC=number of aggregates for worms that received exposure from L2 stage (until adulthood)\n(§4) If the regimen has no effect, the value would equal 0%. Conversely, if the regimen was as effective as raising the worms on the drug for their entire life, the value would equal 100%."}, "[5]": {"tested_on": "Pdat-1::GFP+Pdat-1::α-synuclein+Pdat-1::torsinA worms", "test": "α-synuclein toxicity assay, wt torsinA", "description": "(§5) We have previously shown that torsinA can prevent dopamine (“DA”) neuron degeneration resulting from overexpression of α-synuclein in the DA neurons of C. elegans, while torsinA (“ΔE”) has a reduced neuroprotection (Cao et al., J Neurosci, 2005, 25(1): 3801-3812). Specifically, only 26.1±5.3% of the worms expressing Pdat-1::GFP+Pdat-1::α-synuclein maintained all 4 wildtype CEP DA neurons as 4 day adults while the percentages of the worms expressing Pdat-1::GFP+Pdat-1::α-synuclein+Pdat-1::torsinA and Pdat-1::GFP+Pdat-1::α-synuclein+Pdat-1:: torsinA (ΔE) are 57.3±1.6% and 42.2±7.3%, respectively (Cao et al., J Neurosci, 2005, 25(1): 3801-3812) (FIG. 8).\n(§6) All molecules are coded by Prestwick Library number. TorsinA-dependent compounds identified from the aggregation assay have torsinA-specific effects and, therefore, are likely to function in the same manner in the α-synuclein toxicity assay. All three α-synuclein transgenic lines were exposed to the five torsinA-dependent compounds to determine their torsinA-specificity (FIG. 9). As expected, none of these compounds had any effect in Pdat-1::GFP+Pdat-1::α-synuclein when torsinA expression is absent."}, "[6]": {"tested_on": "Pdat-1::GFP+Pdat-1::α-synuclein+Pdat-1:: torsinA (ΔE) worms", "test": "α-synuclein toxicity assay, mutant torsinA", "description": "as §5, §6"}, "[7]": {"tested_on": "worms expressing Punc-54::Q82::GFP+Punc-54::torsinA (ΔE) with a mutant torsinA only", "test": "Protein aggregate assay in worms with mutant torsinA only", "procedure": "(§7) C elegans nematodes were grown at 20° C. on NGM plates as described by Brenner (Brenner, Genetics, 1974, 77: 71-94). Several transgenic C. elegans lines were used for primary screens of the Prestwick small molecule library. A transgenic worm line expressing Punc-54::Q82-GFP; with both wild type (“wt”) (Punc=54: :torsinA) or mutant (Punc-54::torsinA(ΔE)). Torsin-A expresses a phenotype that results in visible protein aggregation under fluorescent microscope. Transgenic worms were plated on drug plates and progeny were studied for a return to soluble protein. […]\n(§8) The screening assays used to identify the compounds use protein aggregation readouts to determine the specificities of molecular action. […]\n(§9) The methods for the aggregate analysis assay are described in Caldwell et al. (Hum Mol Genetics, 2003, 12(3): 307-319). […] MetaMorph Software (Universal Imaging Inc.) was used for pseudocoloration of images, image overlay, and aggregate size quantitation. For each worm line analyzed, average aggregate size was determined by capturing images of all aggregates in the posterior region of 30 L3-staged animals (for Q82::GFP aggregates) or all aggregates in 30 adult animals/day (for Q19::GFP analyses) at 1000× magnification. […]"}, "[8]": {"tested_on": "protein misfolding and aggregation in transgenic worms", "test": "Preventative assay of protein aggregation (drug from hatching to L2 stage)", "conditions": "exposure from hatching to L2 stage; scored at L3 and young adult", "procedure": "To see the preventative effects of the candidate drug compounds on protein misfolding and aggregation, five gravid adult worms were placed onto each drug plate and grown at 20° C. for approximately 3 days. 35-40 Fl worms at L2 stage were picked and transferred to a control plate with the same concentration of control solvent compared to the drug plate. Thirty worms at L3 stage were counted for aggregate number 8 hours later. Thirty young adults were analyzed 32 hours later.\nas §1, §2, §3\nC=number of aggregates for worms that received pre-L2 exposure and were then removed to solvent control plates\nas §4"}, "[9]": {"tested_on": "worms containing Pdat-1::GFP+Pdat-1::torsinA+Pdat-1::torsinA (ΔE) after 6-OHDA exposure", "test": "6-OHDA dopaminergic neurodegeneration in worms with wt and mutant torsinA", "conditions": "wt and mutant torsinA co-expressed; 6-OHDA insult", "description": "Previous studies have established that the “CEP” and “ADE” mechanosensory neurons in C. elegans undergo readily discernable neuronal degeneration after treatment with the dopamine-selective neurotoxin 6-OHDA (Nass et al, 2002). The toxicity of 6-OHDA is mediated through the formation of reactive oxygen species by the generation of hydrogen peroxide and […] via a nonenzymatic auto-oxidation process (Kumar et al., 1995; Foley and Riederer, 2000). […] This degeneration can be monitored in living animals by coexpressing with green fluorescent protein and categorized into three temporally and morphologically distinct stages, including neuronal process blebbing, cell body rounding with process loss, and cell body loss. These characteristic changes reproducibly appear in this order within a few hours, recapitulating observations in MPTP-treated monkeys and in 6-OHDA-treated rats, in which damage to striatal terminals leads to retrograde changes and precedes that of SNpc cell bodies (Berger et al., 1991; Herkenham et al., 1991). The actions of torsin protein in 6-OHDA-mediated neurodegeneration has recently been shown (Cao et al., J Neurosci, 25(1):3801-3812). Animals were treated with various concentrations of 6-OHDA and neurodegeneration was followed over time, as worms develop and age, by co-expression of a dopamine GFP marker in these transparent animals.\nC. elegans nematodes were grown at 25° C. on NGM plates as described by Brenner (Brenner, Genetics, 1974, 77: 71-94). Two transgenic C. elegans lines were used for primary screens of the Prestwick small molecule library. A transgenic worm line expressing Pdat-1::GFP; with both wild type (Pdat-1::torsinA) or mutant (Pdat-1:::torsinA(ΔE)). Torsin-A expresses a phenotype that results in visible neurodegeneration after treatment with 6-OHDA. Transgenic worms were plated on drug plates and progeny were studied for morphological changes in the 8 dopaminergic neurons present in C. elegans.\nDrugs were administered to C. elegans according to a standard procedure (Rand and Johnson, Methods Cell Biol, 1995, 48: 187-204) by mixing the solubilized drug with the agar medium on which the worms are grown. This mode of administration allows the continuous exposure of worms to the drug.\nEach drug was first dissolved in an appropriate solvent, followed by adding the drug solution into pre-autoclaved media, with the volume of drug solution already taken into account. All drugs were tested at 0.5 mg/ml initial concentration, a few of which were toxic to worms and then tested at 0.1 mg/ml or 0.025 mg/ml concentration. Each plate was seeded with 100 μl concentrated E. coli OP50 bacteria\nAge-synchronized worms were obtained by treating gravid adults with 2% sodium hypochlorite and 0.5M NaOH to isolate embryos (Lewis Fleming, 1995). These embryos were grown for 30 h at 25° C. At the L3 stage, larvae were incubated with 10 mM (50 mM) 6-OHDA and 2 mM (or 10 mM) ascorbic acid for 1 h with gentle agitation every 10 minutes. (Nass et al., 2002). The worms were then washed and spread onto NGM plates seeded with bacteria (OP50) and scored at time points ranging from 2 to 72 h after 6-OHDA exposure.\nImmediately after 6-OHDA treatment, worms containing the transgenes were selected under a fluorescence dissecting microscope, based on the presence of GFP, and transferred to a fresh NGM plate seeded with OP50. For each time point, 30-40 worms were applied to a 2% agarose pad and immobilized with 3 mM levamisole. Worms were examined under a Nikon Eclipse E800 epifluorescence microscope equipped with an Endow GFP filter cube (Chroma Technology, Rockingham, Vt.). For ease of analysis, only the four CEP DA neurons in the head of the worm were scored. […]"}, "[10]": {"tested_on": "transgenic worms containing the transgene Punc-54::Q82::GFP without any torsinA expression", "test": "Protein aggregate assay in worms without torsinA expression", "procedure": "as §7, §8, §9"}, "[11]": {"conditions": "Pdat-1::GFP::DAT-1, listed as Lidocaine hydrochloride"}}, "note": "Structures can show the parent of a compound that is named as a salt. Marks after values point to notes of the source that are not given here.", "data": [{"smiles": "CCN(CC)CC(=O)Nc1c(C)cccc1C", "note": "[Compound 50, lidocaine HCl]", "values": [{"measurement": "neuroprotective effect against CAT-2-induced neurodegeneration", "setting": "[1]; Pdat-1::CAT-2", "result": "−7.9", "unit": "%"}, {"measurement": "reduction of 6-OHDA-mediated neurodegeneration", "setting": "[2]", "result": "reduced the 6-OHDA-mediated neurodegeneration"}, {"measurement": "Worms with no GFP", "setting": "[3]; Pdat-1::GFP::DAT-1, water control 0%", "result": 0, "unit": "%"}, {"measurement": "Neurons with cell body GFP only", "setting": "[3]; Pdat-1::GFP::DAT-1, water control 30%", "result": 70, "unit": "%^e"}, {"measurement": "Neurons with cell body and dendritic/axonal GFP", "setting": "[3]; Pdat-1::GFP::DAT-1", "result": 30, "unit": "%"}, {"measurement": "Neurons with cell body and dendritic/axonal GFP", "setting": "[3]; [11]", "result": 30, "unit": "%^d"}, {"measurement": "Mean pixel intensity of cell bodies ± SEM (fluorescence intensity)", "setting": "[3]; Pdat-1::GFP::DAT-1", "result": 1612, "unit": "A.U."}, {"measurement": "Mean pixel intensity of cell bodies ± SEM (fluorescence intensity)", "setting": "[3]; [11]", "result": "1612 ± 78", "unit": "A.U."}, {"measurement": "effect on GFP::DAT-1 level", "setting": "[3]; result in words", "result": "can down-regulate the level of DAT-1 protein directly"}]}, {"smiles": "CN(C)C(=O)C(CCN1CCC(O)(c2ccc(Cl)cc2)CC1)(c1ccccc1)c1ccccc1", "note": "[Compound 144, Loperamide HCl]", "values": [{"measurement": "corrective effect on protein aggregation", "setting": "[4]", "result": "seem to be beneficial"}, {"measurement": "enhanced wild type DA neuron survival", "setting": "[5]", "result": "failed to show any significant neuroprotection"}, {"measurement": "enhanced DA neuron survival", "setting": "[6]", "result": "39.5±1.4", "unit": "%"}, {"measurement": "reduction of aggregation", "setting": "[7]", "result": "reduced aggregation"}, {"measurement": "preventative effect on protein aggregation", "setting": "[8]", "result": "seem to be beneficial"}]}, {"smiles": "NCc1ccc(S(N)(=O)=O)cc1", "note": "[Compound 166, Mafenide]", "values": [{"measurement": "neuroprotective action on dopaminergic neurons overexpressing cat-2", "setting": "[1]; Pdat-1::CAT-2, result in words", "result": "demonstrated a reduction in the standardized decrease in dopaminergic neurodegeneration"}, {"measurement": "neuroprotection of dopaminergic neurons against 6-OHDA", "setting": "[9]", "result": "little to no neuroprotection"}, {"measurement": "reduction of protein aggregates", "setting": "[10]", "result": "reduced the presence of protein aggregates"}]}]}
